Measured values reported in patent publication US20250248980A1, “IMMUNE MODULATORY AGENTS” (PRESIDENT AND FELLOWS OF HARVARD COLLEGE, priority 2022, published 2025).

Biological target: T1, TNF-a receptor (TNF-R1 reporter cells) (Homo sapiens, UniProt P19438)
T1 construct: expressed in transfected cells; development described in WO2022125865A2
Assay: TNF-a-receptor GFP reporter cell screen
Format: cell-based
Details: reducing TNF-a-receptor reporter activities; for IC50: GFP percentage by microscope, 48 hours; for Emax: maximal effect at high compound concentrations
Experimental: FIG. 5 is a dot plot showing the identification of small-molecule compounds that reduce IL-17A or TNF-a receptor activities. Small-molecule screens were performed with 114,665 compounds. Individual compounds were added to IL-17A-reporters or TNF-a-reporters following the addition of respective ligands such as IL-17A or TNF-a (25 ng/ml). The reporter cells were then incubated for additional 48 hours before subjecting them for microscopic analyses (GFP percentage was measured by microscope). Anti-IL17A and anti-TNFa antibodies were used as the positive controls.
The IL-17RA/IL-17RC reporter system was used to identify the IL-17a-specific immune modulatory agents, as described herein (see e.g., compounds (1)-(16)). Furthermore, the IL-17A systems and methods were applied to generate other cytokine/cytokine receptor reporter system (tTA fused onto one receptor subunit via a protease cleavage site, TEV fused to another receptor subunit, optimal linkers inserted between different proteins to ensure high signal-to-background ratio; e.g., for identifying TNF-α-specific immune modulatory agents). The screening platform provided herein was used to identify immune modulatory agents including, but not limited to, small molecules and proteins that modulate IL-17A or TNF-α cytokine signaling.
Two thousand reporter cells per well (384-well plates) were seeded in 30 ul cell culture medium with either IL-17A (25 ng/ml, unless otherwise indicated) or TNFa ligand (25 ng/ml, unless otherwise indicated); additional screens were performed with IL-17A at 7.5 ng/ml. Then 100 nl of the individual compound was added by a pin transfer and cultured for two days in a CO2 incubator. For the cell viability test, 10 ul HOECHST 33342 was added and incubated for 10 min, followed by the addition of 10 ul 4% PFA. After a 10 min incubation, the reporter cells were washed twice with phosphate-buffered saline (PBS) and kept in 30 ul PBS. The images were acquired and analyzed using an IMAGEXPRESS confocal microscope. For storage, plates were sealed with black light-absorbing films.

| SMILES | IC50 | Emax |
| --- | --- | --- |
| CC(C)(CO)CNC1CC(C)(C)Cc2c1cnn2-c1cccc(F)c1 (stereo not shown) [Compound 63] | 1780 nM | 65% |
| COc1cccc(-c2nn(-c3ccccc3)cc2CN2CCC(NC(C)=O)C2)c1 (stereo not shown) [Compound 24] | 610 nM | 75% |
| CC(C)CN1CCc2[nH]cnc2C12CCN(C(=O)c1cccc(F)c1)CC2 [Compound 27] | 2160 nM | 66% |
| CCCN(C/C=C/c1ccccc1)C(=O)CCc1cc2n(n1)CCCNC2 [Compound 52] | 8450 nM | 90% |
| CCc1ccccc1NC(=O)CN1C(=O)COc2ccc(S(=O)(=O)Nc3ccccc3)cc21 [Compound 16] | 1580 nM | 75% |
| O=C(CSC1=Nc2ccccc2N=C(c2ccc(F)cc2)C1)NCc1ccc(F)cc1 [Compound 23] | 5300 nM | 76% |
| Cc1ccc(Cn2c(CNS(=O)(=O)c3ccc(F)c(Cl)c3)nc3cccnc32)cc1 [Compound 45] | 1300 nM | 67% |
| COc1cccc(CNC(=O)CSC2=Nc3ccccc3N=C(c3ccc(F)cc3)C2)c1 [Compound 12] | 6300 nM | 32% |
| CN(Cc1ccc2nonc2c1)C(=O)C(c1ccc(F)cc1)N1CCCCC1 (stereo not shown) [Compound 17] | 1460 nM | 66% |
| Cc1ccc(Cn2c(CNS(=O)(=O)c3ccc(Cl)s3)nc3cccnc32)cc1 [Compound 34] | 860 nM | 64% |
| CS(=O)(=O)c1ccc(C2(C(=O)N3CCSCC3)CCCCC2)cc1 [Compound 41] | 5890 nM | 98% |
| CC(C)C1N=C2c3ccccc3N=C(SCC(=O)NCc3ccc(F)cc3)N2C1=O (stereo not shown) [Compound 61] | 8780 nM | 88% |
| COc1ccc(NC(=O)C(NS(=O)(=O)c2cccc3nsnc23)c2ccccc2)cc1 (stereo not shown) [Compound 38] | 3990 nM | 91% |
| O=C(c1ccccc1OC(F)(F)C(F)F)N1CCNC(=O)C12CCCC2 [Compound 76] | 1360 nM | 64% |
| COc1cc(CN2CCCC(CNC(=O)COc3ccccc3OC)C2)ccc1F (stereo not shown) [Compound 49] | 791 nM | 87% |
| CC(C)Oc1ccccc1-c1cccc(C(=O)NCCc2nncn2C)c1 [Compound 57] | 2340 nM | 47% |
| O=C(NCc1cccc(Cl)c1)C1(Cc2cscn2)CC2CCC1N2 (stereo not shown) [Compound 48] | 3620 nM | 68% |
| Oc1cccc(CN2CCCC(NCc3cc(-c4ccccc4)no3)C2)c1 (stereo not shown) [Compound 51] | 823 nM | 85% |
| COCCn1ccnc1CN(CCO)CCCOc1ccc(Cl)cc1Cl [Compound 13] | 1950 nM | 42% |
| O=c1n(Cc2cccc3ccccc23)nc(C2CCCNC2)n1-c1ccccc1 (stereo not shown) [Compound 62] | 1820 nM | 60% |
| COc1ccc(NC(=O)CSc2nc3ccccc3n2CC(=O)N(C)C2CCCCC2)cc1 [Compound 60] | 6980 nM | 88% |
| COc1cc(C(=O)NCCc2csc3nc(-c4ccccc4C)nn23)cc(OC)c1OC [Compound 64] | 4850 nM | 93% |
| CCOC(=O)c1ccccc1NC(=O)N1CCCN(S(=O)(=O)c2ccc3c(ccn3CC)c2)CC1 [Compound 36] | 7720 nM | 92% |
| O=C(NC1(CN2CCOCC2)CCCCC1)c1ccccc1N1CCOCC1 [Compound 40] | 2160 nM | 76% |
| COc1cc(NC(=O)C(Cc2ccccc2)NS(=O)(=O)c2cccs2)cc(OC)c1 (stereo not shown) [Compound 35] | 2560 nM | 97% |
| O=C(NCCNC(=O)C(c1ccc(F)cc1)N1CCCCC1)c1ccccc1Cl (stereo not shown) [Compound 25] | 1670 nM | 52% |
